# Source: patent US20260062422A1 (Halda Therapeutics OpCo, Inc., priority 2022, published 2026)
# How the values were obtained:
# [1] = tested on: T-Rex 293 cell line SC3 cells lacking increased expression of androgen receptor protein; assay: Cellular growth inhibition, T-Rex 293 SC3 cells without doxycycline, CellTiter-Glo; assay type: cell-based; conditions: T-Rex 293 SC3 cells not exposed to doxycycline, CellTiter-Glo 2.0
# Procedure, shortened: (§1)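 With DMSO (0.5%) vehicle as negative control, compounds treated SC3 cells for 72 h in medium containing charcoal-dextran FBS ± doxycycline. This T-Rex 293 clone expresses transfected wild-type AR on induction. Readout: CellTiter-Glo 2.0; GI50 by nonlinear regression.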
# VCaP cells = assay: Cellular growth inhibition assay for VCaP cells, CellTiter-Glo; assay type: cell-based, human; conditions: Homo sapiens, VCaP, 72 h, 72 hours treatment, CellTiter-Glo 2.0
# Procedure, shortened: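 GI50 values come from four-parameter curve fits of luminescence data normalized to a zero baseline. Compound, in medium with 0.5% DMSO, was added one day after plating and left for 72 h before CellTiter-Glo 2.0 addition.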
# T47D cells = assay: Cellular growth inhibition assay for T47D cells, CellTiter-Glo; assay type: cell-based, human; conditions: Homo sapiens, T47D, 72 h, 72 hours treatment, CellTiter-Glo 2.0 cell viability
# Procedure, shortened: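 Growth inhibition as GI50, fitted with four parameters to CellTiter-Glo luminescence after 72 h of compound exposure (0.5% DMSO). Cells were T47D, grown in insulin-supplemented (0.2 units/mL) DMEM with 10% FBS and treated one day post-seeding.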
# [2] = tested on: T-Rex 293 cell line SC3 cells having increased expression of androgen receptor protein due to exposure to doxycycline; assay: Cellular growth inhibition, T-Rex 293 SC3 cells with doxycycline (androgen receptor induced), CellTiter-Glo; assay type: cell-based; conditions: T-Rex 293 SC3 cells with 10 ng/mL doxycycline (increased androgen receptor expression)
# Procedure, shortened: as §1
GI50 (VCaP cells) [nM],GI50 (T47D cells) [nM],SMILES,GI50 ([1]; 72 h) [nM],GI50 ([2]; 72 h) [nM],GI50 ([1]; 72 hours) [nM],GI50 ([2]; 72 hours) [nM]
> 3000,< 500,Cc1sc2c(c1C)C(c1ccc(N3CCOC4(CCN(c5ncc(C(=O)N[C@H]6C(C)(C)[C@H](Oc7ccc(C#N)c(Cl)c7)C6(C)C)cn5)CC4)C3)cc1)=NC(Cc1ncco1)c1nnc(C)n1-2 (some centres unmarked) [Compound I-647],> 3000,< 500,,
< 500,< 500,Cc1sc2c(c1C)C(c1ccc(N3CC[C@@H](CNc4ncc(C(=O)N[C@H]5C(C)(C)[C@H](Oc6ccc(C#N)c(Cl)c6)C5(C)C)cn4)C3)cc1)=NC(Cc1ncco1)c1nnc(C)n1-2 (some centres unmarked) [Compound I-648],< 500,< 500,,
< 500,< 500,Cc1sc2c(c1C)C(c1ccc(N[C@H]3CC[C@H](CNc4ncc(C(=O)N[C@H]5C(C)(C)[C@H](Oc6ccc(C#N)c(Cl)c6)C5(C)C)cn4)CC3)cc1)=N[C@@H](Cc1ncco1)c1nnc(C)n1-2 [Compound I-649],< 500,< 500,,
500 to 1500,500 to 1500,Cc1sc2c(c1C)C(c1ccc(N3CCCC(CN(C)c4ncc(C(=O)N[C@H]5C(C)(C)[C@H](Oc6ccc(C#N)c(Cl)c6)C5(C)C)cn4)C3)cc1)=N[C@@H](Cc1ncco1)c1nnc(C)n1-2 (some centres unmarked) [Compound I-650],> 3000,< 500,,
< 500,< 500,Cc1sc2c(c1C)C(c1ccc(N3CCN(C4CCN(c5ncc(C(=O)N[C@H]6C(C)(C)[C@H](Oc7ccc(C#N)c(Cl)c7)C6(C)C)cn5)CC4)CC3)cc1)=NC(Cc1ncco1)c1nnc(C)n1-2 (some centres unmarked) [Compound I-651],< 500,< 500,,
< 500,< 500,Cc1sc2c(c1C)C(c1ccc(NCCC3CCCN(c4ncc(C(=O)N[C@H]5C(C)(C)[C@H](Oc6ccc(C#N)c(Cl)c6)C5(C)C)cn4)C3)cc1)=N[C@@H](Cc1ncco1)c1nnc(C)n1-2 (some centres unmarked) [Compound I-652],< 500,< 500,,
< 500,< 500,Cc1sc2c(c1C)C(c1ccc(N[C@@H]3CCC[C@H](Nc4ncc(C(=O)N[C@H]5C(C)(C)[C@H](Oc6ccc(C#N)c(Cl)c6)C5(C)C)cn4)C3)cc1)=NC(Cc1ncco1)c1nnc(C)n1-2 (some centres unmarked) [Compound I-653],< 500,< 500,,
1500 to 3000,500 to 1500,Cc1sc2c(c1C)C(c1ccc(N[C@H]3CCCCN(c4ncc(C(=O)N[C@H]5C(C)(C)[C@H](Oc6ccc(C#N)c(Cl)c6)C5(C)C)cn4)C3)cc1)=NC(Cc1ncco1)c1nnc(C)n1-2 (some centres unmarked) [Compound I-655],> 3000,< 500,,
< 500,< 500,Cc1sc2c(c1C)C(c1ccc(N3CC4(CCN(c5ncc(C(=O)N[C@H]6C(C)(C)[C@H](Oc7ccc(C#N)c(Cl)c7)C6(C)C)cn5)C4)C3)cc1)=NC(Cc1ncco1)c1nnc(C)n1-2 (some centres unmarked) [Compound I-656],500 to 1500,< 500,,
< 500,< 500,Cc1sc2c(c1C)C(c1ccc(N3C[C@@H]4[C@H](C3)[C@H]4Nc3ncc(C(=O)N[C@H]4C(C)(C)[C@H](Oc5ccc(C#N)c(Cl)c5)C4(C)C)cn3)cc1)=N[C@@H](Cc1ncco1)c1nnc(C)n1-2 [Compound I-657],< 500,< 500,,
< 500,< 500,"Cc1sc2c(c1C)C(c1ccc(C3CCC4(CC3)CCN(c3ncc(C(=O)N[C@H]5C(C)(C)[C@H](Oc6ccc(C#N)c(Cl)c6)C5(C)C)cn3)C4)cc1)=N[C@@H](Cc1ncco1)c1nnc(C)n1-2 [Compound I-671, N-[3-(3-chloro-4-cyano-phenoxy)-2,2,4,4-tetramethyl-cyclobutyl]-2-[8-[4-[(9S)-4,5,13-trimethyl-9-(oxazol-2-ylmethyl)-3-thia-1,8,11,12-tetrazatricyclo[8.3.0.02,6]trideca-2(6),4,7,10,12-pentaen-7-yl]phenyl]-2-azaspiro[4.5]decan-2-yl]pyrimidine-5-carboxamide]",< 500,< 500,,
< 500,< 500,"Cc1sc2c(c1C)C(c1ccc(OC3CC4(C3)CC3(CCN(c5ncc(C(=O)N[C@H]6C(C)(C)[C@H](Oc7ccc(C#N)c(Cl)c7)C6(C)C)c(Cl)n5)CC3)C4)cc1)=N[C@@H](Cc1ncco1)c1nnc(C)n1-2 [Compound I-672, 4-chloro-N-((1r,3r)-3-(3-chloro-4-cyanophenoxy)-2,2,4,4-tetramethylcyclobutyl)-2-(2-(4-((S)-2,3,9-trimethyl-6-(oxazol-2-ylmethyl)-6H-thieno[3,2-f][1,2,4]triazolo[4,3-a][1,4]diazepin-4-yl)phenoxy)-9-azadispiro[3.1.56.14]dodecan-9-yl)pyrimidine-5-carboxamide]",> 3000,> 3000,,
< 500,< 500,"Cc1nc(N2CCC3(CC2)CC2(CC(Oc4ccc(C5=N[C@@H](Cc6ncco6)c6nnc(C)n6-c6sc(C)c(C)c65)cc4)C2)C3)ncc1C(=O)N[C@H]1C(C)(C)[C@H](Oc2ccc(C#N)c(Cl)c2)C1(C)C [Compound I-673, N-[3-(3-chloro-4-cyano-phenoxy)-2,2,4,4-tetramethyl-cyclobutyl]-4-methyl-2-[2-[4-[(9S)-4,5,13-trimethyl-9-(oxazol-2-ylmethyl)-3-thia-1,8,11,12-tetrazatricyclo[8.3.0.02,6]trideca-2(6),4,7,10,12-pentaen-7-yl]phenoxy]-9-azadispiro [3.1.56.14]dodecan-9-yl]pyrimidine-5-carboxamide]",> 3000,< 500,,

SMILES,GI50 (VCaP cells) [nM],GI50 (T47D cells) [nM],GI50 ([1]; 72 h) [nM],GI50 ([2]; 72 h) [nM],GI50 ([1]; 72 hours) [nM],GI50 ([2]; 72 hours) [nM]
Cc1sc2c(c1C)C(c1ccc(N3C4CC(=O)CC3CN(c3ncc(C(=O)N[C@H]5C(C)(C)[C@H](Oc6ccc(C#N)c(Cl)c6)C5(C)C)cn3)C4)cc1)=NC(Cc1ncco1)c1nnc(C)n1-2 (some centres unmarked) [Compound I-654],< 500,< 500,,,< 500,< 500
